Test results reported in ChEMBL document CHEMBL4152208, “Synthesis and structure-activity relationships of quinolinone and quinoline-based P2X7 receptor antagonists and their anti-sphere formation activities in glioblastoma cells” (Eur J Med Chem, 2018).
Activity calls are given as the source filed them. The calls are words filed in the database; no cut-off is given here.

Tests used:
Assay type in all cases: cell-based
[1] = target: T1, P2X purinoceptor 7 (Homo sapiens) (UniProt Q99572); experiment: Antagonist activity at human P2X7 receptor expressed in HEK293 cells assessed as inhibition of BzATP-induced EtBr uptake at 10 uM after 2 hrs by fluorescence assay relative to control
T1 sequence (whole entry): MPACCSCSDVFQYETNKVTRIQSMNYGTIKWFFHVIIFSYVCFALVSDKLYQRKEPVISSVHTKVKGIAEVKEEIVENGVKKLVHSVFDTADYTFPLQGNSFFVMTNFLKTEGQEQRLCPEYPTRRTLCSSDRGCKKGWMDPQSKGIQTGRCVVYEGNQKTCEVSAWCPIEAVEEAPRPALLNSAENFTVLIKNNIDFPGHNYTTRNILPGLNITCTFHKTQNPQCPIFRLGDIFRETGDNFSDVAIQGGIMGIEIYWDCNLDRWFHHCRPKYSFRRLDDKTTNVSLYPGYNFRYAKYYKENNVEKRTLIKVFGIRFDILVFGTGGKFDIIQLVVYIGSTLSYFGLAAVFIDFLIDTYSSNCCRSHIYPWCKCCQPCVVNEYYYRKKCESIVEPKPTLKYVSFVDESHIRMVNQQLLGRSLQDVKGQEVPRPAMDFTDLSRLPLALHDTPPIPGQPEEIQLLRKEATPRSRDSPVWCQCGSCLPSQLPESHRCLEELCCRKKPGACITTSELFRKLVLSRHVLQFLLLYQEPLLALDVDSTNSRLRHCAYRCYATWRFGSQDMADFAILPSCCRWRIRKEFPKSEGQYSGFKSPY

[2] = target: T1, P2X purinoceptor 7 (Homo sapiens); experiment: Antagonist activity at human P2X7 receptor expressed in HEK293 cells assessed as inhibition of BzATP-induced EtBr uptake at 1 uM after 2 hrs by fluorescence assay relative to control
P2X purinoceptor 7 [3] = target: T2, P2X purinoceptor 7 (Homo sapiens, UniProt Q99572); experiment: Antagonist activity at human P2X7 receptor expressed in HEK293 cells assessed as inhibition of BzATP-induced EtBr uptake after 2 hrs by fluorescence assay relative to control
T2 sequence (Q99572 whole entry): T1 sequence (whole entry)

P2X purinoceptor 7 [4] = target: T2, P2X purinoceptor 7; experiment: Antagonist activity at P2X7 in LPS/IFN gamma differentiated human THP-1 cells assessed as inhibition of BzATP-induced IL-1beta release preincubated for 30 mins followed by BzATP stimulation for 30 mins by ELISA
[5] = Cytotoxicity against HEK293 cells expressing human P2X7 receptor assessed as cell survival at 10 uM by MTT assay relative to control; conditions: read-out: Survival
[6] = target: T1, P2X purinoceptor 7 (Homo sapiens); experiment: Antagonist activity at P2X7 in LPS/IFN gamma differentiated human THP-1 cells assessed as inhibition of BzATP-induced IL-1beta release at 10 uM preincubated for 30 mins followed by BzATP stimulation for 30 mins by ELISA

SMILES: COc1ccc(Cn2c(=O)c(C(=O)NCCc3ccc(C)cc3)cc3c(NC(=O)CCC4CCCC4)cccc32)cc1
- inhibition [1]: inactive

SMILES: COc1ccc(Cn2c(=O)c(C(=O)NCCc3ccc(C)cc3)cc3c(NC(=O)COc4ccc(Cl)cc4)cccc32)cc1
- inhibition [1]: inactive

SMILES: O=C(Nc1cccc2nc(Cl)ccc12)C12CC3CC(CC(C3)C1)C2
- inhibition [1]: 51%
- inhibition [2]: 11%

SMILES: COC(=O)c1cc2c(NC(=O)C3CCCCC3)cccc2n(Cc2ccc(OC)cc2)c1=O
- inhibition [1]: 88%
- inhibition [2]: 67%
- IC50 (P2X purinoceptor 7 [3]): 0.81 µM

SMILES: COC(=O)c1cc2c(NC(=O)CCc3ccccc3)cccc2n(Cc2ccc(OC)cc2)c1=O
- inhibition [1]: 56%
- inhibition [2]: 36%

SMILES: CCc1ccc(CCNC(=O)c2cc3c(N)cccc3n(Cc3ccc(OC)cc3)c2=O)cc1
- inhibition [1]: inactive

SMILES: COC(=O)c1cc2c(NC(=O)c3ccccc3)cccc2n(Cc2ccc(OC)cc2)c1=O
- inhibition [1]: inactive

SMILES: COc1ccc(Cn2c(=O)c(C(=O)NCCc3ccc(Cl)cc3)cc3c(NC(=O)COc4cccc(Cl)c4)cccc32)cc1
- inhibition [1]: inactive

SMILES: COC(=O)c1cc2c(NC(=O)CC34CC5CC(CC(C5)C3)C4)cccc2nc1Cl
- inhibition [1]: 43%
- inhibition [2]: 27%

SMILES: CCCC(=O)Nc1cccc2c1cc(C(=O)NCCc1ccccc1)c(=O)n2Cc1ccc(OC)cc1
- inhibition [1]: inactive

SMILES: CCCC(=O)Nc1cccc2c1cc(C(=O)NCCc1ccc(OC)cc1)c(=O)n2Cc1ccc(OC)cc1
- inhibition [1]: inactive

SMILES: COc1ccc(Cn2c(=O)c(C(=O)NCCc3ccc(C)cc3)cc3c(NC(=O)CCc4ccccc4)cccc32)cc1
- inhibition [1]: inactive

SMILES: COC(=O)c1cc2c(NC(=O)CC34CC5CC(CC(C5)C3)C4)cccc2n(Cc2ccc(OC)cc2)c1=O
- inhibition [1]: 76%
- inhibition [2]: 65%
- IC50 (P2X purinoceptor 7 [3]): 0.861 µM

SMILES: COC(=O)c1cc2c(NC(=O)CC3CCCCC3)cccc2n(Cc2ccc(OC)cc2)c1=O
- inhibition [1]: 86%
- inhibition [2]: 63%
- IC50 (P2X purinoceptor 7 [3]): 0.875 µM

SMILES: COc1ccc(Cn2c(=O)c(C(=O)NCCc3ccc4c(c3)OCO4)cc3c(N)cccc32)cc1
- inhibition [1]: inactive

SMILES: COc1ccc(Cn2c(=O)c(C(=O)NCCc3ccc(Cl)cc3)cc3c(NC(=O)Cc4ccccc4)cccc32)cc1
- inhibition [1]: inactive

SMILES: COC(=O)c1cc2c(NC(=O)CCC3CCCC3)cccc2n(Cc2ccc(OC)cc2)c1=O
- inhibition [1]: 45%
- inhibition [2]: 15%

SMILES: O=C(CC1CCCCC1)Nc1cccc2nc(Cl)ccc12
- IC50 (P2X purinoceptor 7 [4]): 0.335 µM
- viability at 10 µM [5]: 92%
- inhibition [1]: 95%
- inhibition [2]: 90%
- IC50 (P2X purinoceptor 7 [3]): 0.385 µM

SMILES: CN([C@@H](Cc1ccc(OS(=O)(=O)c2cccc3cnccc23)cc1)C(=O)N1CCN(c2ccccc2)CC1)S(=O)(=O)c1cccc2cnccc12
- inhibition [6]: 96%
- viability at 10 µM [5]: 93%
- inhibition [2]: 79%

SMILES: CNC(=O)c1cc2c(NC(=O)C34CC5CC(CC(C5)C3)C4)cccc2n(Cc2ccc(OC)cc2)c1=O
- inhibition [1]: 42%
- inhibition [2]: 6%

SMILES: COC(=O)c1cc2c(NC(=O)C34CC5CC(CC(C5)C3)C4)cccc2n(Cc2ccc(C)cc2)c1=O
- inhibition [1]: 45%
- inhibition [2]: 30%

SMILES: COc1ccc(Cn2c(=O)c(C(=O)NCCCc3ccccc3)cc3c(NC(=O)Cc4ccccc4)cccc32)cc1
- inhibition [1]: inactive

SMILES: COc1ccc(CC(=O)Nc2cccc3c2cc(C(=O)NCCc2ccc(C)cc2)c(=O)n3Cc2ccc(OC)cc2)cc1
- inhibition [1]: inactive

SMILES: COC(=O)c1cc2c(N)cccc2n(Cc2ccc(OC)cc2)c1=O
- inhibition [1]: inactive

SMILES: COC(=O)c1cc2c(NC(=O)C34CC5CC(CC(C5)C3)C4)cccc2n(Cc2ccc(Br)cc2)c1=O
- inhibition [1]: 80%
- inhibition [2]: 65%
- IC50 (P2X purinoceptor 7 [3]): 0.81 µM

SMILES: COC(=O)c1cc2c(NC(=O)Cc3ccccc3)cccc2n(Cc2ccc(OC)cc2)c1=O
- inhibition [1]: 43%
- inhibition [2]: 24%

SMILES: O=C(CC12CC3CC(CC(C3)C1)C2)Nc1cccc2nc(-c3ccc(Cl)cc3)ccc12
- IC50 (P2X purinoceptor 7 [4]): 0.178 µM
- viability at 10 µM [5]: 98%
- inhibition [1]: 90%
- inhibition [2]: 89%
- IC50 (P2X purinoceptor 7 [3]): 0.123 µM

SMILES: COc1ccc(Cn2c(=O)c(C(=O)NCCc3ccccc3)cc3c(NC(=O)CCc4ccccc4)cccc32)cc1
- inhibition [1]: inactive

SMILES: O=C(CC12CC3CC(CC(C3)C1)C2)Nc1cccc2nc(-c3ccccc3)ccc12
- IC50 (P2X purinoceptor 7 [4]): 0.434 µM
- viability at 10 µM [5]: 98%
- inhibition [1]: 86%
- inhibition [2]: 78%
- IC50 (P2X purinoceptor 7 [3]): 0.447 µM

SMILES: O=C(CC12CC3CC(CC(C3)C1)C2)Nc1cccc2nc(-c3cccc(O)c3)ccc12
- inhibition [1]: 66%
- inhibition [2]: 36%

SMILES: O=C(CC12CC3CC(CC(C3)C1)C2)Nc1cccc2nc(-c3ccccc3O)ccc12
- inhibition [1]: 69%
- inhibition [2]: 41%

SMILES: COc1ccc(Cn2c(=O)c(C(=O)NCCc3ccc(O)c(OC)c3)cc3c(N)cccc32)cc1
- inhibition [1]: 5%

SMILES: COc1ccc(Cn2c(=O)c(C(=O)NCCCc3ccccc3)cc3c(NC(=O)Cc4ccc(Cl)cc4)cccc32)cc1
- inhibition [1]: inactive

SMILES: COc1ccc(Cn2c(=O)c(C(=O)O)cc3c(N)cccc32)cc1
- inhibition [1]: inactive

SMILES: COC(=O)c1cc2c(NC(=O)C34CC5CC(CC(C5)C3)C4)cccc2n(Cc2ccc(Cl)cc2)c1=O
- inhibition [1]: 88%
- inhibition [2]: 78%
- IC50 (P2X purinoceptor 7 [3]): 0.723 µM

SMILES: COc1ccc(CC(=O)Nc2cccc3c2cc(C(=O)NCCc2ccccc2)c(=O)n3Cc2ccc(OC)cc2)cc1
- inhibition [1]: 8%

SMILES: COC(=O)c1cc2c(NC(=O)CCC3CCCCC3)cccc2n(Cc2ccc(OC)cc2)c1=O
- inhibition [1]: 57%
- inhibition [2]: 20%

SMILES: O=C(CC12CC3CC(CC(C3)C1)C2)Nc1cccc2nc(-c3ccc([N+](=O)[O-])cc3)ccc12
- IC50 (P2X purinoceptor 7 [4]): 0.113 µM
- viability at 10 µM [5]: 93%
- inhibition [1]: 94%
- inhibition [2]: 79%
- IC50 (P2X purinoceptor 7 [3]): 0.073 µM

SMILES: COc1ccc(Cn2c(=O)c(C(=O)NCCc3ccc(C)cc3)cc3c(N)cccc32)cc1
- inhibition [1]: 4%

SMILES: COc1ccc(CCNC(=O)c2cc3c(NC(=O)COc4ccc(Cl)cc4)cccc3n(Cc3ccc(OC)cc3)c2=O)cc1
- inhibition [1]: inactive

SMILES: COc1ccc(Cn2c(=O)c(C(=O)O)cc3c(NC(=O)C45CC6CC(CC(C6)C4)C5)cccc32)cc1
- inhibition [1]: 41%
- inhibition [2]: 2%

SMILES: COC(=O)c1cc2c(NC(=O)C34CC5CC(CC(C5)C3)C4)cccc2nc1Cl
- inhibition [1]: 21%
- inhibition [2]: inactive

SMILES: COc1ccc(Cn2c(=O)c(C(=O)OC(C)C)cc3c(NC(=O)C45CC6CC(CC(C6)C4)C5)cccc32)cc1
- inhibition [1]: 77%
- inhibition [2]: 47%

SMILES: COc1ccc(Cn2c(=O)c(C(=O)NCCc3ccc(C)cc3)cc3c(NC(=O)Cc4ccccc4)cccc32)cc1
- inhibition [1]: 13%

SMILES: COc1ccc(Cn2c(=O)c(C(=O)NCCCc3ccccc3)cc3c(NC(=O)CCc4ccccc4)cccc32)cc1
- inhibition [1]: inactive

SMILES: COc1ccc(Cn2c(=O)ccc3c(NC(=O)C45CC6CC(CC(C6)C4)C5)cccc32)cc1
- inhibition [1]: 43%
- inhibition [2]: 29%

SMILES: COc1ccc(Cn2c(=O)c(C(=O)NCCCc3ccccc3)cc3c(N)cccc32)cc1
- inhibition [1]: inactive

SMILES: COC(=O)c1cc2c(NC(=O)C34CC5CC(CC(C5)C3)C4)cccc2n(Cc2cccc(OC)c2)c1=O
- inhibition [1]: 55%
- inhibition [2]: 35%

SMILES: COc1ccc(Cn2c(=O)c(C(=O)NCCc3ccc(C)cc3)cc3c(NC(=O)COc4cccc(Cl)c4)cccc32)cc1
- inhibition [1]: inactive

SMILES: CCc1ccc(CCNC(=O)c2cc3c(NC(=O)COc4ccc(Cl)cc4)cccc3n(Cc3ccc(OC)cc3)c2=O)cc1
- inhibition [1]: inactive

SMILES: COc1ccc(Cn2c(=O)c(C(=O)NCCc3ccc(Cl)cc3)cc3c(N)cccc32)cc1
- inhibition [1]: inactive

SMILES: COc1ccc(Cn2c(=O)c(C(=O)NCCc3ccccc3)cc3c(N)cccc32)cc1
- inhibition [1]: inactive

SMILES: CCc1ccc(Cn2c(=O)c(C(=O)OC)cc3c(NC(=O)C45CC6CC(CC(C6)C4)C5)cccc32)cc1
- inhibition [1]: 38%
- inhibition [2]: 28%

SMILES: COc1ccc(CCNC(=O)c2cc3c(NC(=O)CCc4ccccc4)cccc3n(Cc3ccc(OC)cc3)c2=O)cc1
- inhibition [1]: 7%

SMILES: COc1ccc(Cn2c(=O)c(C(=O)NCCc3ccc4c(c3)OCO4)cc3c(NC(=O)Cc4ccc(Cl)cc4)cccc32)cc1
- inhibition [1]: inactive

SMILES: COC(=O)c1cc2c(NC(=O)C34CC5CC(CC(C5)C3)C4)cccc2n(Cc2ccc(OC(F)(F)F)cc2)c1=O
- inhibition [1]: 68%
- inhibition [2]: 48%

SMILES: COc1ccc(Cn2c(=O)c(C(=O)N(C)C)cc3c(NC(=O)C45CC6CC(CC(C6)C4)C5)cccc32)cc1
- inhibition [1]: 54%
- inhibition [2]: 14%

SMILES: COC(=O)c1cc2c(NC(=O)C34CC5CC(CC(C5)C3)C4)cccc2n(Cc2ccccc2)c1=O
- inhibition [1]: inactive

SMILES: COC(=O)c1cc2c(NC(=O)C34CC5CC(CC(C5)C3)C4)cccc2n(Cc2ccc(C#N)cc2)c1=O
- inhibition [1]: inactive
